Data set [1] deals with T1, full-length beta-Catenin (Uniprot ID P35222) (Homo sapiens, UniProt P35222).
T1 construct: 10 nM full-length beta-Catenin (Uniprot ID P35222)
T1 sequence (P35222 1-781): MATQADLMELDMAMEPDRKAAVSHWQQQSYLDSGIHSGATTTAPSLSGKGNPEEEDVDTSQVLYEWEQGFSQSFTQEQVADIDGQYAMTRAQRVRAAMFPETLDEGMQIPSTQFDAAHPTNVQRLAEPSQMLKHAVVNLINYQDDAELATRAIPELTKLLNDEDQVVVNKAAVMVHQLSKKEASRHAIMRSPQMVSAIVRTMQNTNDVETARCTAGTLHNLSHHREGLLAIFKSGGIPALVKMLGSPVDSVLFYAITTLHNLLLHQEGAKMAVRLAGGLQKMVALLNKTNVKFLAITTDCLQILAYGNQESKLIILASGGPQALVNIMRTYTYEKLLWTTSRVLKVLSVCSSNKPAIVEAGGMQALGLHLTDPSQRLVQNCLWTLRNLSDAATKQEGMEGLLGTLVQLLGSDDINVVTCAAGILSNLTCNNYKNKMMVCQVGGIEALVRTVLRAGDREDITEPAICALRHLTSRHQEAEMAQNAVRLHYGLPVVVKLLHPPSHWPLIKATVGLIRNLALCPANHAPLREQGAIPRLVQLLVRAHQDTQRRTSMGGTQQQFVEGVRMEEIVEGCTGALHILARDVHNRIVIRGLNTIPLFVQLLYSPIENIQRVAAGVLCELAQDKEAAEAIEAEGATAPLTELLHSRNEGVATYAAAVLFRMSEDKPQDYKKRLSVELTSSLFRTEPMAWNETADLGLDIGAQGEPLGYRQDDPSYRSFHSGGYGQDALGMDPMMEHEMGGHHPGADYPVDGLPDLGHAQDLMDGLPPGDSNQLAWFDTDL
In words: Fluorescence polarization IC50 (beta-catenin / 5FAM-TCF4 10-53 competition). Format: binding.

A short description of data set [2]: CHI Log D procedure. Format: physicochemical. Conditions: for CHI Log D: pH 7.4; for chromatographic logD: pH 7.4, CHI Log D.
The nature of data set [3]: Solubility in PBS. Format: physicochemical. A digest of the protocol: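 The PBS solution was ultracentrifuged and the supernatant analyzed by HPLC. Its peak area was divided by that of a 50 μM peptide DMSO reference injection and multiplied by 50 uM to give solubility.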

This is an account of results in patent US20240116985A1, “STAPLED PEPTIDES AND METHODS THEREOF” (priority 2020, published 2024).

In brackets after ≈: the same amount, converted by molar mass. Read-outs that look alike come from different tables or passages of the source.

For `CC(=O)N1CCC[C@]12CC=CCCCC1(CCCC=CCOC(=O)N(C)CCC[C@@](C)(C(=O)N[C@@H](Cc3ccsc3)C(=O)N[C@@H](Cc3csc4ccccc34)C(=O)N[C@@H](Cc3c[nH]cn3)C(N)=O)NC(=O)[C@H](CC(N)=O)NC(=O)[C@H](Cc3ccccc3)NC(=O)[C@H](C)NC(=O)[C@H](C)NC(=O)[C@H](CC(=O)O)NC(=O)[C@H](CC(=O)O)NC1=O)NC(=O)[C@H](CC(C)(C)C)NC(=O)[C@H](CC(=O)O)NC2=O` (stereo partly drawn) [I-774, Ac-PL3-Asp-Npg-B5-Asp-Asp-Ala-Ala-Phe-Asn-SeN-3Thi-BztA-His-NH2], the IC50 in data set [1] (read-out: FP EC50) and in data set [1] (read-out: beta-Catenin FP IC50) was 38 nM in each case. Moreover, the “CHI Log D” value in data set [2] is 1.928. Moreover, in data set [3], the Solubility (commonly the concentration that dissolves in the medium under given conditions) is 46 µM (≈ 88.7 µg/mL).
With `CC(=O)N1CCC[C@]12CC=CCCCC1(CCCC=CCCCCOC(=O)N3CC[C@@](C(=O)N[C@@H](Cc4ccsc4)C(=O)N[C@@H](Cc4csc5ccccc45)C(=O)N[C@@H](Cc4c[nH]cn4)C(N)=O)(C3)NC(=O)[C@H](CC(N)=O)NC(=O)[C@H](Cc3ccccc3)NC(=O)[C@H](C)NC(=O)[C@H](C)NC(=O)[C@H](CC(=O)O)NC(=O)[C@H](CC(=O)O)NC1=O)NC(=O)[C@H](CC(C)(C)C)NC(=O)[C@H](CC(=O)O)NC2=O` (stereo partly drawn) [I-776, Ac-PL3-Asp-Npg-B5-Asp-Asp-Ala-Ala-Phe-Asn-PyrS3-3Thi-BztA-His-NH2], the IC50 in data set [1] (read-out: beta-Catenin FP IC50) stood at 5 nM. The “CHI Log D” value in data set [2] is 2.137. Also, the “Solubility” value in data set [3] came to 41 µM (≈ 79.6 µg/mL).
As for `CC(=O)N1CCC[C@]12CC=CCCCC1(CCCC=CCCCOC(=O)N3CC[C@@](C(=O)N[C@@H](Cc4cccs4)C(=O)N[C@@H](Cc4csc5ccccc45)C(=O)N[C@@H](Cc4c[nH]cn4)C(N)=O)(C3)NC(=O)[C@H](CC(N)=O)NC(=O)[C@H](Cc3ccccc3)NC(=O)[C@H](C)NC(=O)[C@H](C)NC(=O)[C@H](CC(=O)O)NC(=O)[C@H](CC(=O)O)NC1=O)NC(=O)[C@H](CC(C)(C)C)NC(=O)[C@H](CC(=O)O)NC2=O` (stereo partly drawn) [I-779, Ac-PL3-Asp-Npg-B5-Asp-Asp-Ala-Ala-Phe-Asn-PyrS2-2Thi-BztA-His-NH2], the IC50 in data set [1] (read-out: beta-Catenin FP IC50) amounted to 5 nM. Moreover, the chromatographic logD (usually a lipophilicity value derived from retention on a column) in data set [2] came out at 2.12. The molecule further had a Solubility in data set [3] (Solubility (uM)) of 44 µM (≈ 84.8 µg/mL).
For `CC(=O)N1CCC[C@]12CC=CCCCC1(CCCC=CCCCOC(=O)N3CC[C@@](C(=O)N[C@@H](Cc4ccsc4)C(=O)N[C@@H](Cc4csc5ccccc45)C(=O)N[C@@H](CCC(N)=O)C(N)=O)(C3)NC(=O)[C@H](CC(N)=O)NC(=O)[C@H](Cc3ccccc3)NC(=O)[C@H](C)NC(=O)[C@H](C)NC(=O)[C@H](CC(=O)O)NC(=O)[C@H](CC(=O)O)NC1=O)NC(=O)[C@H](CCC(C)C)NC(=O)[C@H](CC(=O)O)NC2=O` (stereo partly drawn) [I-787, Ac-PL3-Asp-hLeu-B5-Asp-Asp-Ala-Ala-Phe-Asn-PyrS2-3Thi-BztA-Gln-NH2], the IC50 in data set [1] (read-out: beta-Catenin FP IC50) amounted to 5 nM. The same molecule displayed a chromatographic logD in data set [2] of 2.08. In addition, in data set [3], the “Solubility” value was 50 µM (≈ 95.9 µg/mL).
Regarding `CC(=O)N1CCC[C@]12CC=CCCCC1(CCCC=CCCCOC(=O)N3CC[C@@](C(=O)N[C@@H](Cc4ccsc4)C(=O)N[C@@H](Cc4c[nH]c5ccc(Cl)cc45)C(=O)N[C@@H](Cc4c[nH]cn4)C(N)=O)(C3)NC(=O)[C@H](CC(N)=O)NC(=O)[C@H](Cc3ccccc3)NC(=O)[C@H](C)NC(=O)[C@H](C)NC(=O)[C@H](CC(=O)O)NC(=O)[C@H](CC(=O)O)NC1=O)NC(=O)[C@H](CC(C)(C)C)NC(=O)[C@H](CC(=O)O)NC2=O` (stereo partly drawn) [I-791, Ac-PL3-Asp-Npg-B5-Asp-Asp-Ala-Ala-Phe-Asn-PyrS2-3Thi-5C1W-His-NH2], in data set [1] (read-out: beta-Catenin FP IC50), the IC50 stood at 310 nM. The same molecule showed a chromatographic logD in data set [2] of 2.05. Besides, the Solubility in data set [3] (Solubility (uM)) was 48 µM (≈ 93.3 µg/mL).
